Assay results as given in patent US11661431B2, “Thienopyrrole compounds” (Gilead Sciences, Inc., priority 2021, dated 2023).

Legend:
TLR8 = TLR8 (Homo sapiens (Human), UniProt Q9NR97); experiment: TLR8 human peripheral blood mononuclear cell (PBMC) cell-based assay (Compound A as agonist; TNFα and IL12p40 readout); settings: human PBMCs, TLR8 agonist Compound A at 800 nM, 6 hours, antagonist potency; read-out: TLR-8 EC50
TLR7 = TLR7 (Homo sapiens (Human), UniProt Q9NYK1); experiment: TLR7 human peripheral blood mononuclear cell (PBMC) cell-based assay (GS-986 as agonist; IL-6 and IFNα readout); settings: human PBMCs, TLR7 agonist GS-986 at 400 nM, 6 hours, antagonist potency; read-out: TLR-7 EC50
Procedure, shortened: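 IL-6 and IFNα released into supernatant were quantified by electrochemiluminescence immunoassay. Before that, human PBMCs at 100,000 per well received a 10-point antagonist titration for 1 h, then TLR7 agonist for 6 more hours, all at 37 °C, 5% CO2.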

TLR8, sequence (Q9NR97 27-1041): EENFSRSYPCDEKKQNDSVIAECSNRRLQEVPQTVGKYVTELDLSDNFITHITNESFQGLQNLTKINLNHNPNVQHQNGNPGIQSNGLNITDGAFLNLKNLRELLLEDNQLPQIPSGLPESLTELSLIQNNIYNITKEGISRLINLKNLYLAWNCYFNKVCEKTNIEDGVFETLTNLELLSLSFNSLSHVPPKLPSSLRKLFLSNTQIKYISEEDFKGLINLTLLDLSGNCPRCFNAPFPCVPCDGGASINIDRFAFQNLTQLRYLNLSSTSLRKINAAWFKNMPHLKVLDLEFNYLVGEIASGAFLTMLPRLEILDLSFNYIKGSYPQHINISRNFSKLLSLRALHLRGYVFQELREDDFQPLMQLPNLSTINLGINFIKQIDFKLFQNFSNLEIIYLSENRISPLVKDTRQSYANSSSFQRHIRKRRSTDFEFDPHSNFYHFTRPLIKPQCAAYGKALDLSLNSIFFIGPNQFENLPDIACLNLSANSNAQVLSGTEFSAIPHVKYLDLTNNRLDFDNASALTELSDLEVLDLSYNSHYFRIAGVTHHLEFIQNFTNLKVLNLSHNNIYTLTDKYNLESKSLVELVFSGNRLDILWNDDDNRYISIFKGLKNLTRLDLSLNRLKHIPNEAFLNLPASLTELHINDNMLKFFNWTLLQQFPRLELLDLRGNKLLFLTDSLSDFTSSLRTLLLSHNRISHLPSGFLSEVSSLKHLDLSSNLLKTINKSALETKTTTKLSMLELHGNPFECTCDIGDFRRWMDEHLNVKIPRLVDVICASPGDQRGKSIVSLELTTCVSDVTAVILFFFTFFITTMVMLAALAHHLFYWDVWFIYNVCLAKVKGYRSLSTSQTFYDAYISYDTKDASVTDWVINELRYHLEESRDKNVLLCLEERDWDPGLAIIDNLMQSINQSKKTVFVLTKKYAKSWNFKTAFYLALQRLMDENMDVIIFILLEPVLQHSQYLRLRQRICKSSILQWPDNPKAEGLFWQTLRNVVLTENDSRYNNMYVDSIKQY
TLR7, sequence (Q9NYK1 27-1049): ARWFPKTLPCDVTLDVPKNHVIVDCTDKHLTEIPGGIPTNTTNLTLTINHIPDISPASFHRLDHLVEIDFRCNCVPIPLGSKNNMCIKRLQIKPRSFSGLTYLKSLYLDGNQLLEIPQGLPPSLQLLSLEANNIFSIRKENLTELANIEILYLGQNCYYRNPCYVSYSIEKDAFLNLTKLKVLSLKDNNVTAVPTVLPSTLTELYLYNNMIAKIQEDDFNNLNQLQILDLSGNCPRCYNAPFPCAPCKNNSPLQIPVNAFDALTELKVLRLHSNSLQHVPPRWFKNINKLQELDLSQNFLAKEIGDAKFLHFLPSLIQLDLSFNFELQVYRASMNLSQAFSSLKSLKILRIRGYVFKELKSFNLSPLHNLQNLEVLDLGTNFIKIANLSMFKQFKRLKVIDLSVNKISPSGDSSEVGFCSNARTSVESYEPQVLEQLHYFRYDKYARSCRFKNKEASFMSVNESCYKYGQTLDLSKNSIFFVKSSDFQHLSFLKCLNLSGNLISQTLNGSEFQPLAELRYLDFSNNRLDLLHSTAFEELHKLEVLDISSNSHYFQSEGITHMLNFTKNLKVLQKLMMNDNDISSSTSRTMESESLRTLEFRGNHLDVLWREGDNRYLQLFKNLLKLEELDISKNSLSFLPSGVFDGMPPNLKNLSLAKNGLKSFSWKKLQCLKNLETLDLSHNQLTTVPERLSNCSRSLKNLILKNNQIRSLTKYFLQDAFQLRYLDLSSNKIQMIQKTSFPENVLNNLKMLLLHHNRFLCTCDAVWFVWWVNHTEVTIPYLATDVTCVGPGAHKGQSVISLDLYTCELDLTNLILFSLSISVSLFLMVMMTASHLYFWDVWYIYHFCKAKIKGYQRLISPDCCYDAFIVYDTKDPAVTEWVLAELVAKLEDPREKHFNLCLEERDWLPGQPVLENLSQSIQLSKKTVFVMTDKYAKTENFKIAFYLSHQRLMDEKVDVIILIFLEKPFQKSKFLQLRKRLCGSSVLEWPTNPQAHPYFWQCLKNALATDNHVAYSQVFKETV

Row | Compound | EC50 (TLR8) [nM] | EC50 (TLR7) [nM]
1 | Cc1cc(-c2[nH]c3sc(C(=O)N(C)C4CCNCC4)cc3c2C(C)C)cn2ncnc12 [Example 1, 4-isopropyl-N-methyl-5-(8-methyl-[1,2,4]triazolo[1,5-a]pyridin-6-yl)-N-(piperidin-4-yl)-6H-thieno[2,3-b]pyrrole-2-carboxamide] | 8.93 | 0.56
2 | Cc1c(C23CN(CC(N)=O)CC2C3(F)F)sc2[nH]c(-c3cc(C)c4ncnn4c3)c(C(C)C)c12 (stereo not drawn) [Example 200] | 332 | 4.05
3 | Cc1c(C2CCC3(CCNCC3)C2)sc2[nH]c(-c3cc(C)c4ncnn4c3)c(C(C)C)c12 (stereo not drawn) [Example 129] | 10.7 | 0.27
4 | Cc1nc2c(C)cc(-c3[nH]c4sc(C5CCN(C(=O)[C@@H]6COCCN6)CC5)c(C)c4c3C(C)C)cn2n1 [Example 136] | 17.9 | 0.68
5 | Cc1c(C2CCN(C(=O)[C@H]3C[C@@H](F)CN3)CC2)sc2[nH]c(-c3cc(C)c4ncnn4c3)c(C(C)C)c12 [Example 42] | 25.7 | 0.78
6 | Cc1c(C2CCN(C(=O)[C@H]3CCCN3)CC2)sc2[nH]c(-c3cc(C)c4ncnn4c3)c(C(C)C)c12 [Example 15] | 13.4 | 0.12
7 | Cc1c(-c2[nH]c3sc(C4CCN(C(=O)C5COC(C(F)(F)F)CN5)CC4)c(C)c3c2C(C)C)cn2ncnc2c1C (stereo not drawn) [Example 283] | 139 | 2.65
8 | Cc1c(C2CCC3(CNC3)C2)sc2[nH]c(-c3cc(C)c4ncnn4c3)c(C(C)C)c12 (stereo not drawn) [Example 61] | 9.09 | 0.19
9 | Cc1c(C2CC3COCC(C2)N3)sc2[nH]c(-c3cc(C)c4ncnn4c3)c(C(C)C)c12 (stereo not drawn) [Example 59] | 28.4 | 2.97
10 | Cc1c(C2CCC3(CC2)CNC3)sc2[nH]c(-c3cc(C)c4ncnn4c3)c(C(C)C)c12 [Example 24] | 8.98 | 0.29
11 | Cc1c(-c2[nH]c3sc(C4CCN(C5CCNC5=O)CC4)c(C)c3c2C(C)C)cn2ncnc2c1C (single isomer, unassigned) [Example 291, 3-[4-[5-(7,8-dimethyl-[1,2,4]triazolo[1,5-a]pyridin-6-yl)-4-isopropyl-3-methyl-6H-thieno[2,3-b]pyrrol-2-yl]-1-piperidyl]pyrrolidin-2-one] | 22.2 | 0.6
12 | Cc1c(-c2[nH]c3sc(-c4ccc(C5CNCCO5)cc4)c(C)c3c2C(C)C)cn2ncnc2c1C (stereo not drawn) [Example 115] | 9.38 | 0.24
13 | Cc1cc(-c2[nH]c3sc(S(=O)(=O)N4CCNCC4)cc3c2C(C)C)cn2ncnc12 [Example 6, 4-Isopropyl-5-(8-methyl-[1,2,4]triazolo[1,5-a]pyridin-6-yl)-2-(piperazin-1-ylsulfonyl)-6H-thieno[2,3-b]pyrrole] | 84.6 | 21.5
14 | Cc1c(-c2[nH]c3sc([C@@H]4C[C@@H]5C[C@H]4CN5CC(=O)O)c(C)c3c2C(C)C)cn2ncnc2c1C [Example 264, 2-((1S,4R,5R)-5-(5-(7,8-dimethyl-[1,2,4]triazolo[1,5-a]pyridin-6-yl)-4 isopropyl-3-methyl-6H-thieno[2,3-b]pyrrol-2-yl)-2-azabicyclo[2.2.1]heptan-2-yl)acetic acid] | 13.7 | 2.52
15 | Cc1c(-c2[nH]c3sc(C4CCN(C(=O)[C@H]5CO[C@H](C)CN5)CC4)c(C)c3c2C(C)C)cn2ncnc2c1C [Example 279, [4-[5-(7,8-dimethyl-[1,2,4]triazolo[1,5-a]pyridin-6-yl)-4-isopropyl-3-methyl-6H-thieno[2,3-b]pyrrol-2-yl]-1-piperidyl]-[(3R,6R)-6-methylmorpholin-3-yl]methanone] | 13.6 | 0.54
16 | Cc1c(C2CCN(C(=O)[C@@H]3C[C@@H](F)CN3)CC2)sc2[nH]c(-c3cc(C)c4ncnn4c3)c(C(C)C)c12 [Example 117] | 16.6 | 0.52
17 | CO[C@@H]1CN[C@@H](C(=O)N2CCC(c3sc4[nH]c(-c5cc(C)c6ncnn6c5)c(C(C)C)c4c3C)CC2)C1 [Example 45] | 15.6 | 0.13
18 | COc1cc(-c2[nH]c3sc(C4CCNCC4)c(C)c3c2C(C)C)cn2ncnc12 [Example 246, 4-isopropyl-5-(8-methoxy-[1,2,4]triazolo[1,5-a]pyridin-6-yl)-3-methyl-2-(piperidin-4-yl)-6H-thieno[2,3-b]pyrrole] | 8.94 | 0.09
19 | Cc1c(C2CCN(CC(N)=O)CC2)sc2[nH]c(-c3cc(C)c4nccn4c3)c(C(C)C)c12 [Example 237] | 69.3 | 0.29

These reach a lower EC50 (TLR8). Values come first.

Row | EC50 (TLR8) [nM] | EC50 (TLR7) [nM] | Compound
20 | 5.06 | 0.6 | Cc1c(C2CCC3(CCN(CC(N)=O)CC3)C2)sc2[nH]c(-c3cc(C)c4ncnn4c3)c(C(C)C)c12 (stereo not drawn) [Example 133]
21 | 3.02 | 0.32 | Cc1c(C2CCNCC2)sc2[nH]c(-c3cn(C)c4ncccc34)c(C(C)C)c12 [Example 249]
22 | 7.29 | 0.13 | Cc1c(C2CCCN(CC(N)=O)CC2)sc2[nH]c(-c3cc(C)c4ncnn4c3)c(C(C)C)c12 (stereo not drawn) [Example 161, 2-(4-(4-isopropyl-3-methyl-5-(8-methyl-[1,2,4]triazolo[1,5-a]pyridin-6-yl)-6H-thieno[2,3-b]pyrrol-2-yl)azepan-1-yl)acetamide]
23 | 7.76 | 0.43 | Cc1c(C2CCN(C(=O)[C@@H]3CCCN3C)CC2)sc2[nH]c(-c3cc(C)c4ncnn4c3)c(C(C)C)c12 [Example 19]
24 | 0.07 | 0.29 | Cc1c(-c2[nH]c3sc([C@@H]4C[C@@H]5C[C@H]4CN5C4CC5(C4)CS(=O)(=O)C5)c(C)c3c2C(C)C)cn2ncnc2c1C [Example 169]
25 | 3.91 | 0.09 | Cc1c(-c2[nH]c3sc(C4CCC5(CC4)CNCCO5)c(C)c3c2C(C)C)cn2ncnc2c1C (single isomer, unassigned) [Example 292, 9-(5-(7,8-dimethyl-[1,2,4]triazolo[1,5-a]pyridin-6-yl)-4-isopropyl-3-methyl-6H-thieno[2,3-b]pyrrol-2-yl)-1-oxa-4-azaspiro[5.5]undecane]
26 | 5.95 | 0.05 | Cc1c([C@H]2C[C@@H]3CN(CC(N)=O)C[C@@H]3C2)sc2[nH]c(-c3cc(C)c4ncnn4c3)c(C(C)C)c12 [Example 70, 2-((3aR,6aS)-5-(4-isopropyl-3-methyl-5-(8-methyl-[1,2,4]triazolo[1,5-a]pyridin-6-yl)-6H-thieno[2,3-b]pyrrol-2-yl)hexahydrocyclopenta[c]pyrrol-2(1H)-yl)acetamide]
27 | 1.52 | 0.21 | Cc1c(C2CCNC2)sc2[nH]c(-c3cc(C)c4ncnn4c3)c(C(C)C)c12 (stereo not drawn) [Example 127]
28 | 0.38 | 0.3 | Cc1c(-c2[nH]c3sc([C@@H]4C[C@@H]5C[C@H]4CN5CC(=O)N(C)C)c(C)c3c2C(C)C)cn2ncnc2c1C [Example 163]
29 | 4.77 | 0.2 | Cc1c(-c2[nH]c3sc(C4CCN(C(=O)C56CCC(CN5)OC6)CC4)c(C)c3c2C(C)C)cn2ncnc2c1C (stereo not drawn) [Example 108]
30 | 0.24 | 0.05 | Cc1c(-c2[nH]c3sc(C4CC5(CNCCO5)C4)c(C)c3c2C(C)C)cn2ncnc2c1C (stereo not drawn) [Example 76, 2-(5-(7,8-dimethyl-[1,2,4]triazolo[1,5-a]pyridin-6-yl)-4-isopropyl-3-methyl-6H-thieno[2,3-b]pyrrol-2-yl)-5-oxa-8-azaspiro[3.5]nonane]
31 | 7.17 | 0.19 | Cc1c(C2CC3CCC(C2)N3CC(N)=O)sc2[nH]c(-c3cc(C)c4ncnn4c3)c(C(C)C)c12 (stereo not drawn) [Example 62, 2-(3-(4-isopropyl-3-methyl-5-(8-methyl-[1,2,4]triazolo[1,5-a]pyridin-6-yl)-6H-thieno[2,3-b]pyrrol-2-yl)-8-azabicyclo[3.2.1]octan-8-yl)acetamide]
32 | 1.86 | 0.09 | Cc1c([C@H]2C[C@H]3C[C@@H]2CN3CC(N)=O)sc2[nH]c(-c3cc(C)c4ncnn4c3)c(C(C)C)c12 [Example 145]
33 | 1.44 | 0.39 | Cc1c(-c2[nH]c3sc(C4CC(C(=O)N5CCNCC5)C4)c(C)c3c2C(C)C)cn2ncnc2c1C (single isomer, unassigned) [Example 238, (3-(5-(7,8-dimethyl-[1,2,4]triazolo[1,5-a]pyridin-6-yl)-4-isopropyl-3-methyl-6H-thieno[2,3-b]pyrrol-2-yl)cyclobutyl)(piperazin-1-yl)methanone]
34 | 3.64 | 4.05 | Cc1c(-c2[nH]c3sc([C@@H]4C[C@@H]5CC[C@H]4CN5CC(=O)N(C)C)c(C)c3c2C(C)C)cn2ncnc2c1C (single isomer, unassigned) [Example 213]
35 | 3.59 | 0.15 | COCc1c(C2CCNCC2)sc2[nH]c(-c3cc(C)c4ncnn4c3)c(C(C)C)c12 [Example 259, 4-isopropyl-3-(methoxymethyl)-5-(8-methyl-[1,2,4]triazolo[1,5-a]pyridin-6-yl)-2-(piperidin-4-yl)-6H-thieno[2,3-b]pyrrole]
36 | 2.17 | 0.1 | Cc1c(-c2[nH]c3sc(C4CCC(N5CC6(CCNC6=O)C5)CC4)c(C)c3c2C(C)C)cn2ncnc2c1C (stereo not drawn) [Example 299, 2-[4-[5-(7,8-dimethyl-[1,2,4]triazolo[1,5-a]pyridin-6-yl)-4-isopropyl-3-methyl-6H-thieno[2,3-b]pyrrol-2-yl]cyclohexyl]-2,6-diazaspiro[3.4]octan-5-one]
37 | 6.78 | 0.45 | Cc1c(-c2[nH]c3sc([C@H]4C[C@@H]5CC[C@H]4CN5CC(=O)N(C)C)c(C)c3c2C(C)C)cn2ncnc2c1C (single isomer, unassigned) [Example 212]
38 | 0.12 | 0.49 | Cc1c(-c2[nH]c3sc([C@@H]4C[C@@H]5C[C@H]4CN5CC(=O)NC45CC(O)(C4)C5)c(C)c3c2C(C)C)cn2ncnc2c1C [Example 271]
39 | 1.85 | 0.22 | Cc1c(-c2[nH]c3sc(C4CCC(N5CC6(CCO6)C5)CC4)c(C)c3c2C(C)C)cn2ncnc2c1C (stereo not drawn) [Example 300]
